Measured values: patent US4226863A, “7-Methoxy cephalosporins” (Sumitomo Chemical Company, Limited, priority 1975, dated 1980)
Values after ≈ are worked out from the molar mass of the structure shown.

Columns and labels:
Format in all cases: cell-based
[1] = test system: Serratia No. 115; assay: antimicrobial activity, minimum inhibitory concentration, Serratia No. 115
Description: (§1) The antimicrobial activities of the compounds prepared in the previous Examples were determined in a usual manner and the minimum inhibitory concentrations (in terms of μg/ml) are set forth in the Table below.

[2] = test system: Pseudomonas aeruginosa IID 5142; assay: antimicrobial activity, minimum inhibitory concentration, Pseudomonas aeruginosa IID 5142; details: IID5142
Description: as §1

[3] = test system: Enterobacter aerogenes No. 101; assay: antimicrobial activity, minimum inhibitory concentration, Enterobacter aerogenes No. 101; details: Klebsiella aerogenes
Description: as §1

[4] = test system: Proteus vulgaris HX 19; assay: antimicrobial activity, minimum inhibitory concentration, Proteus vulgaris HX 19; details: HX19
Description: as §1

[5] = test system: Escherichia coli NIHJ; assay: antimicrobial activity, minimum inhibitory concentration, Escherichia coli NIHJ

SMILES	MIC [1] [µg/mL]	MIC [2] [µg/mL]	MIC [3] [µg/mL]	MIC [4] [µg/mL]	MIC [5] [µg/mL]
COC1(NC(=O)C(NC(=O)c2cnc3cccnc3c2O)c2cc(Cl)c(O)c(Cl)c2)C(=O)N2C(C(=O)O)=C(CSc3nnc(C)s3)CSC21 (centres unmarked) [Example 40]	12.5 (≈ 16.3 µM)	3.13 (≈ 4.09 µM)	6.25 (≈ 8.17 µM)	0.78 (≈ 1.02 µM)	6.25 (≈ 8.17 µM)
CO[C@@]1(NC(=O)C(NC(=O)c2ccnnc2O)c2ccc(O)cc2)C(=O)N2C(C(=O)O)=C(CSc3nnc(C)s3)CS[C@@H]21 (some centres unmarked) [Example 13]	100 (≈ 155 µM)	25 (≈ 38.7 µM)	25 (≈ 38.7 µM)	0.78 (≈ 1.21 µM)	12.5 (≈ 19.4 µM)
CO[C@@]1(NC(=O)[C@H](NC(=O)c2cnc3cccnc3c2O)c2ccc(O)cc2)C(=O)N2C(C(=O)O)=C(COC(N)=O)CS[C@@H]21 [Example 5, 3-Carbamoyloxymethyl-7α-methoxy-7β-[D-2-(4-hydroxy-1,5-naphthyridine-3-carbonamido)-2-(p-hydroxyphenyl)-acetamido]-3-cephem-4-caboxylic Acid]	50 (≈ 80.1 µM)	3.13 (≈ 5.01 µM)	6.25 (≈ 10 µM)	0.39 (≈ 0.624 µM)	3.13 (≈ 5.01 µM)
CO[C@@]1(NC(=O)C(NC(=O)c2cnccc2O)c2ccc(O)cc2)C(=O)N2C(C(=O)O)=C(CSc3nnnn3C)CS[C@@H]21 (some centres unmarked) [Example 9]	50 (≈ 79.5 µM)	6.25 (≈ 9.94 µM)	12.5 (≈ 19.9 µM)	0.39 (≈ 0.62 µM)	12.5 (≈ 19.9 µM)
CO[C@@]1(NC(=O)[C@H](NC(=O)c2cnc3cccnc3c2O)c2ccc(O)cc2)C(=O)N2C(C(=O)O)=C(CSc3cnn[nH]3)CS[C@@H]21 [Example 3, 3-[(Triazol-5-yl)thiomethyl]-7α-methoxy-7β-[D-2-(4-hydroxy-1,5-naphthyridine-3-carbonamido)-2-(p-hydroxyphenyl)acetamido]-3-cephem-4-carboxylic Acid]	25 (≈ 37.6 µM)	3.13 (≈ 4.71 µM)	6.25 (≈ 9.4 µM)	0.78 (≈ 1.17 µM)	3.13 (≈ 4.71 µM)
CO[C@@]1(NC(=O)C(NC(=O)c2cncnc2O)c2ccccc2)C(=O)N2C(C(=O)O)=C(COC(N)=O)CS[C@@H]21 (some centres unmarked) [Example 11]	100 (≈ 179 µM)	12.5 (≈ 22.4 µM)	50 (≈ 89.5 µM)	0.78 (≈ 1.4 µM)	12.5 (≈ 22.4 µM)
CO[C@@]1(NC(=O)C(NC(=O)c2cnc3nc(N4CCNCC4)ncc3c2O)c2ccc(O)cc2)C(=O)N2C(C(=O)O)=C(COC(N)=O)CS[C@@H]21 (some centres unmarked) [Example 25]	50 (≈ 70.5 µM)	6.25 (≈ 8.81 µM)	25 (≈ 35.2 µM)	0.78 (≈ 1.1 µM)	12.5 (≈ 17.6 µM)
CO[C@@]1(NC(=O)C(NC(=O)c2cccnc2O)c2ccc(O)cc2)C(=O)N2C(C(=O)O)=C(COC(N)=O)CS[C@@H]21 (some centres unmarked) [Example 23]	100 (≈ 174 µM)	12.5 (≈ 21.8 µM)	50 (≈ 87.2 µM)	0.78 (≈ 1.36 µM)	12.5 (≈ 21.8 µM)
CO[C@@]1(NC(=O)C(NC(=O)c2cncnc2O)c2ccc(O)cc2)C(=O)N2C(C(=O)O)=C(CSc3nnnn3C)CS[C@@H]21 (some centres unmarked) [Example 10]	50 (≈ 79.4 µM)	12.5 (≈ 19.9 µM)	12.5 (≈ 19.9 µM)	0.39 (≈ 0.619 µM)	12.5 (≈ 19.9 µM)
COc1nc(OC)c2c(O)c(C(=O)NC(C(=O)NC3(OC)C(=O)N4C(C(=O)O)=C(CSc5nncs5)CSC43)c3ccc(O)cc3)cnc2n1 (centres unmarked) [Example 43]	50 (≈ 67.3 µM)	12.5 (≈ 16.8 µM)	25 (≈ 33.7 µM)	1.56 (≈ 2.1 µM)	12.5 (≈ 16.8 µM)
CO[C@@]1(NC(=O)C(NC(=O)c2cnc3nc(C)ccc3c2O)c2ccc(O)cc2)C(=O)N2C(C(=O)O)=C(COC(C)=O)CS[C@@H]21 (some centres unmarked) [Example 15]	100 (≈ 157 µM)	12.5 (≈ 19.6 µM)	50 (≈ 78.4 µM)	1.56 (≈ 2.45 µM)	12.5 (≈ 19.6 µM)
COC1(NC(=O)C(NC(=O)c2cnccc2O)C2=CCC=CC2)C(=O)N2C(C(=O)O)=C(COC(N)=O)CSC21 (centres unmarked) [Example 33]	100 (≈ 179 µM)	12.5 (≈ 22.3 µM)	50 (≈ 89.4 µM)	0.39 (≈ 0.697 µM)	12.5 (≈ 22.3 µM)
COC1(NC(=O)C(NC(=O)c2cnccc2O)c2cccc(O)c2)C(=O)N2C(C(=O)O)=C(CSc3nnc(CO)s3)CSC21 (centres unmarked) [Example 42]	50 (≈ 75.7 µM)	12.5 (≈ 18.9 µM)	25 (≈ 37.8 µM)	0.78 (≈ 1.18 µM)	12.5 (≈ 18.9 µM)
CO[C@@]1(NC(=O)C(NC(=O)c2cnccc2O)c2ccccc2)C(=O)N2C(C(=O)O)=C(COC(C)=O)CS[C@@H]21 (some centres unmarked) [Example 8]	100 (≈ 180 µM)	6.25 (≈ 11.2 µM)	25 (≈ 44.9 µM)	0.39 (≈ 0.701 µM)	12.5 (≈ 22.5 µM)
COC1(NC(=O)C(NC(=O)c2cnccc2O)c2ccc(O)c(F)c2)C(=O)N2C(C(=O)O)=C(CSc3nnnn3C)CSC21 (centres unmarked) [Example 41]	50 (≈ 77.3 µM)	6.25 (≈ 9.67 µM)	12.5 (≈ 19.3 µM)	0.39 (≈ 0.603 µM)	12.5 (≈ 19.3 µM)
COC1(NC(=O)C(NC(=O)c2nnc(O)nc2O)c2ccc(O)cc2)C(=O)N2C(C(=O)O)=C(CSc3nnnn3C)CSC21 (centres unmarked) [Example 50]	50 (≈ 77.3 µM)	12.5 (≈ 19.3 µM)	25 (≈ 38.7 µM)	1.56 (≈ 2.41 µM)	12.5 (≈ 19.3 µM)
CCN(CC)c1ccc2ncc(C(=O)NC(C(=O)N[C@]3(OC)C(=O)N4C(C(=O)O)=C(CSc5cnn[nH]5)CS[C@@H]43)c3ccc(O)cc3)c(O)c2n1 (some centres unmarked) [Example 22]	25 (≈ 34 µM)	3.13 (≈ 4.25 µM)	6.25 (≈ 8.49 µM)	0.39 (≈ 0.53 µM)	3.13 (≈ 4.25 µM)
COC1(NC(=O)C(NC(=O)c2cnc3cccnc3c2O)c2ccc(O)c(O)c2)C(=O)N2C(C(=O)O)=C(CSc3nnc(C)s3)CSC21 (centres unmarked) [Example 45]	12.5 (≈ 17.6 µM)	6.25 (≈ 8.78 µM)	12.5 (≈ 17.6 µM)	0.78 (≈ 1.1 µM)	3.13 (≈ 4.4 µM)
COC1(NC(=O)C(NC(=O)c2nnc(O)nc2O)c2ccccc2)C(=O)N2C(C(=O)O)=C(COC(C)=O)CSC21 (centres unmarked) [Example 49]	100 (≈ 174 µM)	25 (≈ 43.5 µM)	50 (≈ 87 µM)	1.56 (≈ 2.72 µM)	25 (≈ 43.5 µM)
COC1(NC(=O)C(NC(=O)c2nnc(S)nc2O)c2ccccc2)C(=O)N2C(C(=O)O)=C(CSc3nnc(C)s3)CSC21 (centres unmarked) [Example 53]	100 (≈ 151 µM)	25 (≈ 37.7 µM)	50 (≈ 75.4 µM)	1.56 (≈ 2.35 µM)	25 (≈ 37.7 µM)
COC1(NC(=O)C(NC(=O)c2nnc(SC)nc2O)c2ccccc2)C(=O)N2C(C(=O)O)=C(COC(N)=O)CSC21 (centres unmarked) [Example 51]	100 (≈ 165 µM)	25 (≈ 41.3 µM)	50 (≈ 82.6 µM)	1.56 (≈ 2.58 µM)	25 (≈ 41.3 µM)
CO[C@@]1(NC(=O)C(NC(=O)c2cnc3ccc(SC)nc3c2O)c2ccc(O)c(Cl)c2)C(=O)N2C(C(=O)O)=C(CSc3nnc(CO)s3)CS[C@@H]21 (some centres unmarked) [Example 20]	6.25 (≈ 7.89 µM)	3.13 (≈ 3.95 µM)	6.25 (≈ 7.89 µM)	0.39 (≈ 0.492 µM)	3.13 (≈ 3.95 µM)
COC1(NC(=O)C(NC(=O)c2cnc3cccnc3c2O)c2cccc(O)c2)C(=O)N2C(C(=O)O)=C(CSc3nnc(C)s3)CSC21 (centres unmarked) [Example 31]	25 (≈ 35.9 µM)	3.13 (≈ 4.5 µM)	6.25 (≈ 8.98 µM)	0.39 (≈ 0.561 µM)	3.13 (≈ 4.5 µM)
CO[C@@]1(NC(=O)C(NC(=O)c2cnc3nc(SC)ncc3c2O)c2ccc(O)cc2)C(=O)N2C(C(=O)O)=C(COC(N)=O)CS[C@@H]21 (some centres unmarked) [Example 18]	50 (≈ 74.4 µM)	6.25 (≈ 9.31 µM)	12.5 (≈ 18.6 µM)	0.78 (≈ 1.16 µM)	12.5 (≈ 18.6 µM)
CO[C@@]1(NC(=O)C(NC(=O)c2ncccc2O)c2ccccc2)C(=O)N2C(C(=O)[O-])=C(C[n+]3ccc(C(N)=O)cc3)CS[C@@H]21 (some centres unmarked) [Example 24]	50 (≈ 80.8 µM)	12.5 (≈ 20.2 µM)	25 (≈ 40.4 µM)	0.78 (≈ 1.26 µM)	12.5 (≈ 20.2 µM)
COc1cnc2c(O)c(C(=O)NC(C(=O)N[C@]3(OC)C(=O)N4C(C(=O)O)=C(CSc5nnnn5C)CS[C@@H]43)c3ccc(O)cc3)cnc2n1 (some centres unmarked) [Example 17]	6.25 (≈ 8.79 µM)	3.13 (≈ 4.4 µM)	6.25 (≈ 8.79 µM)	0.2 (≈ 0.281 µM)	3.13 (≈ 4.4 µM)
COC1(NC(=O)C(NC(=O)c2cnc3cccnc3c2O)c2ccco2)C(=O)N2C(C(=O)O)=C(CSc3nnnn3C)CSC21 (centres unmarked) [Example 35]	6.25 (≈ 9.56 µM)	3.13 (≈ 4.79 µM)	3.13 (≈ 4.79 µM)	0.39 (≈ 0.597 µM)	1.56 (≈ 2.39 µM)
CO[C@@]1(NC(=O)C(NC(=O)c2nccnc2O)c2ccc(O)cc2)C(=O)N2C(C(=O)O)=C(CSc3nnc(C)s3)CS[C@@H]21 (some centres unmarked) [Example 27]	50 (≈ 77.4 µM)	25 (≈ 38.7 µM)	50 (≈ 77.4 µM)	1.56 (≈ 2.42 µM)	25 (≈ 38.7 µM)
